Results: US5260280A (priority 1989, dated 1993)
Values joined by “and” are separate entries in the source; they are usually repeats but may differ in a detail not shown here. Identical values can stand only once. Like-named read-outs stand apart in the source and are kept apart here.

Columns and labels:
[1] = system: CHO-Kl cells; assay type: cell-based, Chinese hamster
[2] = system: enterotoxin LT-II; design: species or system E. coli; settings: in vivo, po
[3] = target: enterotoxin CFA/I(LT-1) (Escherichia coli, UniProt D0Z6T1); assay type: cell-based, E. coli
[4] = target: cholera toxin CT (Vibrio cholerae, UniProt P01556); assay type: cell-based
[5] = target: enterotoxin CFA/II(LT-II) (Escherichia coli, UniProt P0CK94); assay type: cell-based, E. coli
[6] = target: cholera toxin B-subunits (Vibrio cholerae, UniProt P01556); assay type: binding
[7] = system: enterotoxin LT-I; design: species or system E. coli; settings: in vivo, po
[8] = system: cholera toxin; assay type: in vivo, Vibrio cholerae; settings: Balb/c mice, CT 0.25 mg oral on day 8

enterotoxin CFA/I(LT-1), sequence (D0Z6T1 whole entry, looked up): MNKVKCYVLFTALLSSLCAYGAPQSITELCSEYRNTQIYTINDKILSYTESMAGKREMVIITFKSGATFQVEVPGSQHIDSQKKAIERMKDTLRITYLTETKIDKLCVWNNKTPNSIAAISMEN
cholera toxin CT, sequence (P01556 whole entry, looked up): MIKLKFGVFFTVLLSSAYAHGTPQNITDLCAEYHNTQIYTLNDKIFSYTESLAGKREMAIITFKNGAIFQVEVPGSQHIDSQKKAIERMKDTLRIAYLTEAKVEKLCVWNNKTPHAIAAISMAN
enterotoxin CFA/II(LT-II), sequence (P0CK94 whole entry, looked up): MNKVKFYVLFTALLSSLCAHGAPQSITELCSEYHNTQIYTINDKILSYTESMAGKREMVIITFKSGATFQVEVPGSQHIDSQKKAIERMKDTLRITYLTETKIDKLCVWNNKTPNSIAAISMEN

cholera toxin [CT]
CHO-Kl cells morphologically altered [1]: at least 70%

ganglioside GD3
Rate of diarrhea [2]: 40% and 20%

kappa-casein
neutralization of the toxicity of LT-I against CHO-Kl cells (morphological alteration) [3]: neutralized the toxicity | neutralization of the toxicity of CT against CHO-Kl cells (morphological alteration) [4]: neutralized the toxicity | neutralization of the toxicity of LT-II against CHO-Kl cells (morphological alteration) [5]: neutralized the toxicity | interference with the binding of the cholera toxin B-subunits to GM1 [6]: interfered with the binding

kappa-casein glycomacropeptides [GMP]
neutralization of the toxicity of LT-I against CHO-Kl cells (morphological alteration) [3]: neutralized the toxicity | neutralization of the toxicity of CT against CHO-Kl cells (morphological alteration) [4]: neutralized the toxicity | neutralization of the toxicity of LT-II against CHO-Kl cells (morphological alteration) [5]: neutralized the toxicity | interference with the binding of the cholera toxin B-subunits to GM1 [6]: interfered with the binding

sialyllactose [SL]
Rate of diarrhea [7]: 40% and 20% | neutralization of the toxicity of LT-I against CHO-Kl cells (morphological alteration) ([3]; samples 1 or 5 micrograms/chamber, LT-I culture supernatant): neutralized the toxicity | Rate of diarrhea ([8]; oral 0.2 mg/day for 7 days): 20% | Rate of diarrhea ([8]; oral 0.5 mg/day for 7 days): 20% | Rate of diarrhea ([8]; oral 1.0 mg/day for 7 days): 0% | neutralization of the toxicity of CT against CHO-Kl cells (morphological alteration) ([4]; samples 1 or 5 micrograms/chamber, CT 10 micrograms/ml): neutralized the toxicity | neutralization of the toxicity of LT-II against CHO-Kl cells (morphological alteration) ([5]; samples 1 or 5 micrograms/chamber, LT-II culture supernatant): neutralized the toxicity | interference with the binding of the cholera toxin B-subunits to GM1 ([6]; GM1-adsorbed plate, peroxidase-labeled CT-B, absorbance at 405 nm): interfered with the binding
